Assay results reported in patent US20060014949A1 (SuperGen Inc., priority 2004, published 2006).

Legend:
Assay type in all cases: physicochemical
[1] = Moisture sorption/desorption analysis (VTI SGA-100); conditions: for Weight % chg: Table 3
Method: Moisture sorption/desorption data were collected on a VTI SGA-100 Vapor Sorption Analyzer. Sorption and desorption data were collected over a range of 5 to 95% relative humidity (RH) at 10% RH increments under a nitrogen purge. Sodium chloride (NaCl) and polyvinylpyrrolidone (PVP) were used as the calibration standards. Equilibrium criteria used for analysis were less than 0.0100% weight change in 5 minutes, with a maximum equilibration time of 180 minutes if the weight criterion was not met. Data collected were not corrected for the initial moisture content of the samples.

[2] = Solid-state stress (compression, heating, grinding, storage) with XRPD form check; conditions: no solvent; Hydraulic Press 10,000 lbs 1 hour
Method: X-ray powder diffraction analyses were carried out on a Shimadzu XRD-6000 X-ray powder diffractometer using Cu Kα radiation having a wavelength of 1.5406 Å. The instrument is equipped with a fine-focus X-ray tube. The tube power was set by setting potential difference at 40 kV, and current 40 mA. The divergence and scattering slits were set at 1° and the receiving slit was set at 0.15 mm. Diffracted radiation was detected by a NaI scintillation detector. A theta-two theta continuous scan at 3°/min (0.4 sec/0.02° step) from 2.5 to 40 °2θ was performed. A silicon standard was analyzed each day to check the instrument alignment. Each sample was analyzed in a quartz sample holder. A variable temperature (VT-XRPD) experiment was performed on one form. The sample was prepared for analysis by pressing it into a variable temperature holder.

[3] = Relative humidity stress experiments, XRPD after storage over saturated salt solutions; conditions: Sodium Chloride, 75.5 % RH @ 20° C., 27 days
Method: In relative humidity (RH) stress analysis, open vials containing solid samples were placed inside chambers containing saturated salt solutions along with a small amount of the undissolved salt. The chambers were sealed and allowed to stand at ambient temperature for several days. Samples were analyzed by X-ray powder diffraction (XRPD) immediately after removing the sample from the RH chamber. The RH values these salt solutions were obtained from an ASTM standard.

[4] = Thermogravimetric analysis (TGA); conditions: 25 to 150° C.; listed as A
Method: Thermogravimetric analysis (TGA) was carried out on TA Instruments TGA 2050 or 2950. The calibration standards were nickel and Alumel™. Samples were placed on a clean, aluminum sample pan, accurately weighed, and inserted into the TGA furnace. The samples were heated in nitrogen at a rate of 10° C./min, from 35° C. to a final temperature of 250° C.

- total weight loss in the region from 5 to 45% RH ([1]; 5 to 45% RH): about 0.1%
- total weight gain from 5 to 95% RH ([1]; 5 to 95% RH, listed as form A): 7.3%
- Weight % chg ([1]; desorption, RH 4.93 %, 24.89 deg C, 533.4 min): 7.1472%
- Weight % chg ([1]; desorption, RH 15.15 %, 24.89 deg C, 524.9 min): 7.1528%
- Weight % chg ([1]; desorption, RH 25.13 %, 24.88 deg C, 515.4 min): 7.1586%
- Weight % chg ([1]; desorption, RH 35.12 %, 24.88 deg C, 504.8 min): 7.1671%
- Weight % chg ([1]; desorption, RH 45.07 %, 24.87 deg C, 493.8 min): 7.1753%
- Weight % chg ([1]; desorption, RH 55.14 %, 24.88 deg C, 480.8 min): 7.1837%
- Weight % chg ([1]; desorption, RH 65.19 %, 24.88 deg C, 467.8 min): 7.1925%
- Weight % chg ([1]; desorption, RH 75.49 %, 24.88 deg C, 454.8 min): 7.2022%
- Weight % chg ([1]; desorption, RH 85.43 %, 24.89 deg C, 443.8 min): 7.2106%
- Weight % chg ([1]; sorption, RH 5.14 %, 24.92 deg C, 27.9 min): −0.0698%
- Weight % chg ([1]; sorption, RH 14.81 %, 24.92 deg C, 41.6 min): −0.0784%
- Weight % chg ([1]; sorption, RH 24.88 %, 24.92 deg C, 51.2 min): −0.0804%
- Weight % chg ([1]; sorption, RH 34.89 %, 24.92 deg C, 62.2 min): −0.0733%
- Weight % chg ([1]; sorption, RH 44.86 %, 24.91 deg C, 82.2 min): −0.1004%
- Weight % chg ([1]; sorption, RH 54.83 %, 24.91 deg C, 93.2 min): −0.0931%
- Weight % chg ([1]; sorption, RH 64.82 %, 24.91 deg C, 107.7 min): −0.0775%
- Weight % chg ([1]; sorption, RH 74.73 %, 24.91 deg C, 118.3 min): −0.0646%
- Weight % chg ([1]; sorption, RH 84.63 %, 24.91 deg C, 304.2 min): 3.8389%
- Weight % chg ([1]; sorption, RH 94.67 %, 24.90 deg C, 433.1 min): 7.2104%
- Weight % chg ([1]; start, RH 1.46 %, 24.92 deg C, 0.0 min): 0.0000%
- weight (water) lost upon equilibration to 5% RH ([1]; equilibration to 5% RH, listed as form A): 0.06%
- RH above which moisture sorption begins ([1]; sorption cycle): above 75 % RH
- XRPD Pattern [2]: did not induce a form change
- XRPD result [3]: converts into form B
- TGA Results: percent weight change from 25 to 150° C. [4]: <0.1%
Structure (SMILES): Nc1ncn([C@H]2C[C@H](O)[C@@H](CO)O2)c(=O)n1 [Form A]
- solid form after moisture sorption/desorption analysis ([1]; after sorption/desorption cycle, listed as form A): retained during the desorption cycle as decitabine polymorph form B
